Measurements published in patent US10138261B2, “Ferrocenyl compounds” (The University of Birmingham, priority 2013, dated 2018).
Read-outs that look alike come from different tables or passages of the source.

Key:
[1] = test system: oesophageal cancer cell lines OE 19 and OE 33
[2] = test system: human cervix carcinoma cells (Hela); experiment: proliferation activity assay, HeLa cells; format: cell-based; settings: read-out: IC50 (50% inhibitory concentration) HeLa
[3] = test system: non-cancerous human T-lymphocyte cells (CEM); experiment: proliferation activity assay, CEM cells; format: cell-based; settings: read-out: IC50 (50% inhibitory concentration) CEM
[4] = test system: murine leukemia cells (L1210); experiment: proliferation activity assay, L1210 cells; format: cell-based; settings: read-out: IC50 (50% inhibitory concentration) L1210
[5] = test system: Vaccinia virus; experiment: microbe, parasite or virus in culture; format: cell-based; settings: read-out: EC50 (required to reduce virus-induced cytopathogenicity by 50%) Vaccinia virus
[6] = test system: Vesicular stomatitis virus; experiment: microbe, parasite or virus in culture; format: cell-based; settings: read-out: EC50 (required to reduce virus-induced cytopathogenicity by 50%) Vesicular stomatitis virus
[7] = test system: Herpes simplex virus-1 TK^− KOS ACV^r; experiment: microbe, parasite or virus in culture; format: cell-based; settings: read-out: EC50 (required to reduce virus-induced cytopathogenicity by 50%) Herpes simplex virus-1 TK^− KOS ACV^r
[8] = test system: Herpes simplex virus-2 (G); experiment: microbe, parasite or virus in culture; settings: Human alphaherpesvirus 2, HeLa, read-out: EC50 (required to reduce virus-induced cytopathogenicity by 50%) Herpes simplex virus-2 (G)
[9] = test system: Herpes simplex virus-1 (KOS); experiment: microbe, parasite or virus in culture; settings: Human alphaherpesvirus 1, HeLa, read-out: EC50 (required to reduce virus-induced cytopathogenicity by 50%) Herpes simplex virus-1 (KOS)
[10] = test system: Hela cells; experiment: minimum cytotoxic concentration in antiviral assay host cells (Table 2)
[11] = test system: cells lacking (TK negative) or possessing (TK positive) the phosphorylation enzyme; settings: cell death curves, FIG. 3
[12] = test system: Herpes simplex virus-1 (KOS); settings: read-out: EC50 (required to reduce virus-induced cytopathogenicity by 50%) Herpes simplex virus-1 (KOS); Hela cells
[13] = test system: Herpes simplex virus-2 (G); settings: read-out: EC50 (required to reduce virus-induced cytopathogenicity by 50%) Herpes simplex virus-2 (G); Hela cells
[14] = even at higher concentrations of 25 μM
[15] = Vesicular stomatitis virus, HeLa

Compound	inhibition of cell growth [1, 14]	IC50 [2]	IC50 [3]	IC50 [4]	EC50 ([5]; Orthopoxvirus vaccinia, HeLa)	EC50 [6, 15]	EC50 ([7]; Human alphaherpesvirus 1, HeLa)	also measured
1-(Thyminyl-)ethyl-ferrocene [Compound 4]	ineffective at inhibiting cell growth	509 µM	592 µM	417 µM	–	–	–	–
1-[2-(Adenin-9-yl)ethyl]-ferrocene [Compound 5]	ineffective at inhibiting cell growth	–	–	–	–	–	–	–
1-[α-Methyl-(3-(hydroxy)propyl)]ferrocene [Compound 3]	ineffective at inhibiting cell growth	45.2 µM	38.7 µM	12.3 µM	–	–	–	–
Nc1nc2c(ncn2COCCO)c(=O)[nH]1 [Acyclovir]	–	–	–	–	> 250 µM	> 250 µM	50 µM	–
O=c1[nH]c(=O)n([C@H]2C[C@H](O)[C@@H](CO)O2)cc1/C=C/Br [Brivudin]	–	–	–	–	10 µM	> 250 µM	50 µM	EC50 [8]: 183 µM; EC50 [9]: 0.02 µM; Minimum cytotoxic concentration (required to cause a microscopically detectable alteration of normal cell morphology) [10]: >250 μM
Nc1ccn(C[C@@H](CO)OCP(=O)(O)O)c(=O)n1 [Cidofovir]	–	–	–	–	17 µM	> 250 µM	0.9 µM	EC50 [8]: 2 µM; EC50 [9]: 2 µM; Minimum cytotoxic concentration (required to cause a microscopically detectable alteration of normal cell morphology) [10]: >250 μM
N.N.[Cl][Pt][Cl] [Cisplatin]	–	1.2 µM	0.9 µM	1 µM	–	–	–	–
Nc1nc(O)c2ncn(COC(CO)CO)c2n1 [Ganciclovir]	–	–	–	–	> 100 µM	> 100 µM	10 µM	–
(S,Rp)-1-[α-Methyl-(3-(hydroxy)propyl)]-2-[2-(-adenin-9-yl)ethyl]-ferrocene [Compound 2]	–	–	–	–	–	–	–	inhibition of cell growth ([1]; 6.25 μM, 4-day experiment): inhibited cell growth
(S,Rp)-1-[α-Methyl-(3-(hydroxy)propyl)]-2-[(thyminyl)ethyl]-ferrocene [Compound 1]	–	2.68 µM	0.9 µM	0.78 µM	–	–	–	inhibition of cell growth ([1]; 6.25 μM, 4-day experiment): inhibited cell growth; cell survival, TK negative versus TK positive cells [11]: the cells lacking the phosphorylation enzyme (TK negative) survive more than the cells that possess the phosphorylation enzyme (TK positive); EC50 [5]: 21.6 µM; EC50 [6]: 48 µM; EC50 [12]: 2.4 µM; EC50 ([7]; Hela cells): 9.6 µM; EC50 [13]: 2.4 µM
